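Values below derive from 48-hour exposures of cells grown in 96-well plates, with endpoints linearly interpolated between the two concentrations bracketing the appropriate inhibition level. TGI denotes the concentration required for complete inhibition of growth.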 Where a SMILES comes first, the peptide text is derived from it. The star is where a group is joined. Boc = CC(C)(C)OC(=O)*

One experiment deals with CAKI-1 renal. The experiment is described as follows: NCI tumour cell line growth inhibition, 48 h.
Take `CC[C@]1(Cc2ccc(OC)c(OC)c2)CN(S(=O)(=O)c2ccc(C)cc2)C[C@@H]1OC(C)=O`: the TGI is > 100 µM.

Turning to `COc1ccccc1N/C(=C\C(=O)C(=O)NC12CC3CC(CC(C3)C1)C2)c1ccccc1`, the TGI was > 10 µM.

On to `CC(C)(C)c1ccc2c(c1)CNCCNCc1cc(C(C)(C)C)ccc1OCC1(CO2)COc2ccc(C(C)(C)C)cc2CNCCNCc2cc(C(C)(C)C)ccc2OC1`, for which the TGI was found to be 2.74 µM.

Molecule `NCC1CCN(c2nc3ccccc3c3c2CCCC3)CC1` came in with a TGI of 21.4 µM.

On to `CCN(CC)CCc1c2c(nc3ccccc13)C(=O)c1cccnc1C2=O`, for which the TGI was determined as 4.9 µM.

`Nc1cc(CO)cc(Nc2nc3ccc(Cl)cc3c3[nH]c4ccccc4c23)c1` returned a TGI of 8.33 µM.

On to `Cc1c(F)c(N)c2c(=O)cc(-c3ccc(NC(=O)CN(C)C)c(F)c3)oc2c1F`, for which the TGI is > 66.1 µM.

With `CCN1CC2=C(NC(=S)NC2c2ccc(Cl)cc2)/C(=C/c2ccc(Cl)cc2)C1` (centres undefined), the TGI was > 100 µM.

In the case of `CN1C(=O)N(c2ccccc2)C2(CCN(CC3COc4ccccc4O3)CC2)C1=O` (centres undefined), the TGI was > 100 µM.

Consider `O=C(O)c1c2c(cc3c1CC1(Cc4ccccc4C1)C3)CCC2`, for which the TGI was > 100 µM.

For the molecule `Cc1nc(-c2ccc([N+](=O)[O-])cc2)cn2c1nc1ccccc12`, the TGI was > 100 µM.

`OCC1CCCCCCCCCCC12SCCCS2` (centres undefined): the TGI is > 100 µM.

As for `COc1cc(-c2cc(=O)c3cc4c(cc3[nH]2)OCO4)cc(OC)c1O`, the TGI is > 10 µM.

Take `CC(C)=CCOC(=O)C(C)=[N+]=[N-]`: the TGI is > 100 µM.

Regarding `COC(=O)CNC(=O)C(Cc1ccccc1)NC(=O)C(CCSC)NC(=O)C(Cc1ccc(O)cc1)NC(=O)OC(C)(C)C` (centres undefined) (Boc-YMFG-OMe; configuration not given here), the TGI was > 100 µM.

Regarding `O=C(Nc1ccc(Br)cc1)c1c(-c2ccccc2)c2ccc(O)cc2oc1=O`, the TGI is > 10 µM.

For the molecule `COc1ccc(N2C(=O)C3c4[nH]c5ccc(OCc6ccccc6)cc5c4C4CCC(C(C)(C)C)CC4C3C2=O)cc1` (centres undefined), the TGI is > 100 µM.

For the next experiment, the system named is SNB-19 CNS. The experiment is described as follows: NCI tumour cell line growth inhibition, 48 h.
Consider `NC(C(F)(F)F)(C(F)(F)F)P(=O)(Cc1ccccc1)Cc1ccccc1`, for which the TGI was > 100 µM.

Turning to `CN1C(=O)C2C(=O)N(Cc3ccccc3)CC(=O)N2c2cccnc21` (centres undefined), the TGI is > 100 µM.

In the case of `C=C1CC(COc2cc(=O)oc3ccccc23)(c2ccccc2)OC1=O` (centres undefined), the TGI amounted to 37.3 µM.

In the case of `O=C(O)CSc1nnc(COc2ccc(Cl)cc2)n1-c1ccccc1`, the TGI is > 100 µM.

With `C[N+]1=C2[B-](C(C)(C)C)=[N+](C(C)(C)C)[B-]2(C(C)(C)C)[N+](C)=C2[B-](C(C)(C)C)=[N+](C(C)(C)C)[B-]21C(C)(C)C` (centres undefined), the TGI is > 100 µM.

The molecule `Brc1ccc(CCNCCN2CCCCC2)cc1` had a TGI of 34 µM.

`OC1C2[C@@H](O)CCCN2C[C@@H](O)[C@H]1O` (some centres undefined): the TGI was > 100 µM.

Regarding `COCOC1/C=C/CCCC#C[C@H](C)C(=O)CC1` (some centres undefined), the TGI worked out at 32.6 µM.

As to `CC[C@]1(Cc2ccc(OC)c(OC)c2)CN(S(=O)(=O)c2ccc(C)cc2)C[C@@H]1OC(C)=O`, the TGI is > 100 µM.

`CC(C)(C)c1ccc2c(c1)CNCCNCc1cc(C(C)(C)C)ccc1OCC1(CO2)COc2ccc(C(C)(C)C)cc2CNCCNCc2cc(C(C)(C)C)ccc2OC1`: the TGI was 2 µM.

Molecule `NCC1CCN(c2nc3ccccc3c3c2CCCC3)CC1` displayed a TGI of 24.3 µM.

The molecule `Nc1cc(CO)cc(Nc2nc3ccc(Cl)cc3c3[nH]c4ccccc4c23)c1` yielded a TGI of 44.9 µM.

Consider `Cc1c(F)c(N)c2c(=O)cc(-c3ccc(NC(=O)CN(C)C)c(F)c3)oc2c1F`, for which the TGI is > 100 µM.

As for `CCN1CC2=C(NC(=S)NC2c2ccc(Cl)cc2)/C(=C/c2ccc(Cl)cc2)C1` (centres undefined), the TGI was > 100 µM.

`CN1C(=O)N(c2ccccc2)C2(CCN(CC3COc4ccccc4O3)CC2)C1=O` (centres undefined) gave a TGI of 56.6 µM.

As for `Cc1nc(-c2ccc([N+](=O)[O-])cc2)cn2c1nc1ccccc12`, the TGI was > 100 µM.

On to `OCC1CCCCCCCCCCC12SCCCS2` (centres undefined), for which the TGI is > 100 µM.

Turning to `COc1cc(-c2cc(=O)c3cc4c(cc3[nH]2)OCO4)cc(OC)c1O`, the TGI is > 10 µM.

Consider `CC(C)=CCOC(=O)C(C)=[N+]=[N-]`, for which the TGI was > 100 µM.

With `COC(=O)CNC(=O)C(Cc1ccccc1)NC(=O)C(CCSC)NC(=O)C(Cc1ccc(O)cc1)NC(=O)OC(C)(C)C` (centres undefined) (Boc-YMFG-OMe; configuration not given here), the TGI is > 100 µM.

With `COc1ccc(N2C(=O)C3c4[nH]c5ccc(OCc6ccccc6)cc5c4C4CCC(C(C)(C)C)CC4C3C2=O)cc1` (centres undefined), the TGI is > 100 µM.

The next experiment deals with ACHN renal. The experiment is described as follows: NCI tumour cell line growth inhibition, 48 h.
As for `NC(C(F)(F)F)(C(F)(F)F)P(=O)(Cc1ccccc1)Cc1ccccc1`, the TGI was > 100 µM.

For `CN1C(=O)C2C(=O)N(Cc3ccccc3)CC(=O)N2c2cccnc21` (centres undefined), the TGI is > 100 µM.

Turning to `C=C1CC(COc2cc(=O)oc3ccccc23)(c2ccccc2)OC1=O` (centres undefined), the TGI stood at 4.54 µM.

With `O=C(O)CSc1nnc(COc2ccc(Cl)cc2)n1-c1ccccc1`, the TGI is > 100 µM.

As to `C[N+]1=C2[B-](C(C)(C)C)=[N+](C(C)(C)C)[B-]2(C(C)(C)C)[N+](C)=C2[B-](C(C)(C)C)=[N+](C(C)(C)C)[B-]21C(C)(C)C` (centres undefined), the TGI is > 100 µM.

In turn, `Brc1ccc(CCNCCN2CCCCC2)cc1` returned a TGI of 42.6 µM.

As to `Cc1ccc(C(=O)Nc2ccc(CP(=O)(O)O)cc2CP(=O)(O)O)cc1NC(=O)c1cccc(N)c1`, the TGI was > 100 µM.

As for `OC1C2[C@@H](O)CCCN2C[C@@H](O)[C@H]1O` (some centres undefined), the TGI was > 100 µM.

On to `COCOC1/C=C/CCCC#C[C@H](C)C(=O)CC1` (some centres undefined), for which the TGI was found to be 27.8 µM.

For the molecule `CC[C@]1(Cc2ccc(OC)c(OC)c2)CN(S(=O)(=O)c2ccc(C)cc2)C[C@@H]1OC(C)=O`, the TGI is > 100 µM.

As for `COc1ccccc1N/C(=C\C(=O)C(=O)NC12CC3CC(CC(C3)C1)C2)c1ccccc1`, the TGI is > 10 µM.

In turn, `CC(C)(C)c1ccc2c(c1)CNCCNCc1cc(C(C)(C)C)ccc1OCC1(CO2)COc2ccc(C(C)(C)C)cc2CNCCNCc2cc(C(C)(C)C)ccc2OC1` had a TGI of 2.98 µM.

For the molecule `NCC1CCN(c2nc3ccccc3c3c2CCCC3)CC1`, the TGI turned out to be 25.3 µM.

In turn, `Nc1cc(CO)cc(Nc2nc3ccc(Cl)cc3c3[nH]c4ccccc4c23)c1` displayed a TGI of 15 µM.

As for `Cc1c(F)c(N)c2c(=O)cc(-c3ccc(NC(=O)CN(C)C)c(F)c3)oc2c1F`, the TGI is > 100 µM.

As for `CCN1CC2=C(NC(=S)NC2c2ccc(Cl)cc2)/C(=C/c2ccc(Cl)cc2)C1` (centres undefined), the TGI is > 100 µM.

Regarding `CN1C(=O)N(c2ccccc2)C2(CCN(CC3COc4ccccc4O3)CC2)C1=O` (centres undefined), the TGI was > 100 µM.

Consider `O=C(O)c1c2c(cc3c1CC1(Cc4ccccc4C1)C3)CCC2`, for which the TGI was > 100 µM.

In the case of `OCC1CCCCCCCCCCC12SCCCS2` (centres undefined), the TGI was > 100 µM.

On to `COc1cc(-c2cc(=O)c3cc4c(cc3[nH]2)OCO4)cc(OC)c1O`, for which the TGI is > 10 µM.

As for `CC(C)=CCOC(=O)C(C)=[N+]=[N-]`, the TGI was > 100 µM.

As for `COC(=O)CNC(=O)C(Cc1ccccc1)NC(=O)C(CCSC)NC(=O)C(Cc1ccc(O)cc1)NC(=O)OC(C)(C)C` (centres undefined) (Boc-YMFG-OMe; configuration not given here), the TGI is > 100 µM.

On to `O=C(Nc1ccc(Br)cc1)c1c(-c2ccccc2)c2ccc(O)cc2oc1=O`, for which the TGI was > 10 µM.

`COc1ccc(N2C(=O)C3c4[nH]c5ccc(OCc6ccccc6)cc5c4C4CCC(C(C)(C)C)CC4C3C2=O)cc1` (centres undefined): the TGI was > 100 µM.

In the next experiment the test system is CCRF-CEM leukemia. Description: NCI tumour cell line growth inhibition, 48 h.
For `NC(C(F)(F)F)(C(F)(F)F)P(=O)(Cc1ccccc1)Cc1ccccc1`, the TGI is > 100 µM.

As to `CN1C(=O)C2C(=O)N(Cc3ccccc3)CC(=O)N2c2cccnc21` (centres undefined), the TGI was > 100 µM.
